Laboratory results published in US20150105252A1, “SUBSTITUTED PYRAZOLES AS HERBICIDES” (E I DU PONT DE NEMOURS AND COMPANY, priority 2013, published 2015).

How the values were obtained:
morningglory = assay: Test E preemergence; assay type: in vivo, Ipomoea lacunosa; details: 21 days, scale 0 to 100
From the text: (§1) Seeds of plant species selected from bermudagrass (Cynodon dactylon), Surinam grass (Brachiaria decumbens), crabgrass, large (large crabgrass, Digitaria sanguinalis), crabgrass, naked (naked crabgrass, Digitaria nuda), foxtail, green (green foxtail, Setaria viridis), johnsongrass (Sorghum halepense), kochia (Kochia scoparia), morningglory (pitted morningglory, Ipomoea lacunosa), nutsedge, purple (purple nutsedge, Cyperus rotundus), ragweed (common ragweed, Ambrosia elation), mustard, black (black mustard, Brassica nigra), guineagrass (Panicum maximum), dallisgrass (Paspalum dilatatum), barnyardgrass (Echinochloa crus-galli), sandbur (southern sandbur, Cenchrus echinatus), sowthistle (common sowthistle, Sonchus oleraceous), ryegrass, Italian (Italian ryegrass, Lolium multiflorum), signalgrass (broadleaf signalgrass, Brachiaria platyphylla), dayflower, VA (Virginia (VA) dayflower, Commelina virginica), bluegrass (annual bluegrass, Poa annua), quackgrass (Elytrigia repens), mallow (common mallow, Malva sylvestris), buckwheat, wild (wild buckwheat, Polygonum convolvulus), leafy spurge (Euphorbia esula), common chickweed (Stellaria media), wild poinsettia (Euphorbia heterophylla), pigweed, palmer (palmer pigweed, Amaranthus palmeri), and pigweed (redroot pigweed, Amaranthus retroflexus) were planted into a blend of loam soil and sand and treated preemergence with test chemicals formulated in a non-phytotoxic solvent mixture which included a surfactant.
(§2) Treated plants and controls were maintained in a greenhouse for 21 days, after which time all species were compared to controls and visually evaluated. Plant response ratings, summarized in Table E, are based on a scale of 0 to 100 where 0 is no effect and 100 is complete control. A dash (-) response means no test result.

crabgrass, naked = assay: Test E preemergence; assay type: in vivo, Digitaria nuda; details: 21 days, scale 0 to 100
From the text: as §1, §2

signalgrass = assay: Test E preemergence; assay type: in vivo, Brachiaria platyphylla; details: 21 days, scale 0 to 100
From the text: as §1, §2

guineagrass = assay: Test E preemergence; assay type: in vivo, Panicum maximum; details: 21 days, scale 0 to 100
From the text: as §1, §2

soybean = assay: Test F postemergence; assay type: in vivo, Glycine max; details: scale 0 to 100
From the text: (§3) Seeds of plant species selected from corn (Zea mays), soybean (Glycine max), velvetleaf (Abutilon theophrasti), lambsquarters (Chenopodium album), wild poinsettia (Euphorbia heterophylla), pigweed, palmer (palmer pigweed, Amaranthus palmeri), common waterhemp (Amaranthus rudis), surinam grass (Brachiaria decumbens), large crabgrass (Digitaria sanguinalis), crabgrass, Brazil (Brazilian crabgrass, Digitaria horizontalis), fall panicum (Panicum dichotomiflorum), giant foxtail (Setaria faberii), green foxtail (Setaria viridis), goosegrass (Eleusine indica), johnsongrass (Sorghum halepense), common ragweed (Ambrosia elation), barnyardgrass (Echinochloa crus-galli), southern sandbur (Cenchrus echinatus), arrowleaf sida (Sida rhombifolia), Italian ryegrass (Lolium multiflorum), dayflower, VA (Virginia (VA) dayflower, Commelina virginica), field bindweed (Convolvulus arvensis), cocklebur (common cocklebur, Xanthium strumarium), morningglory (Ipomoea coccinea), nightshade (eastern black nightshade, Solanum ptycanthum), kochia (Kochia scoparia), yellow nutsedge (Cyperus esculentus), and hairy beggarticks (Bidens pilosa), were planted into a silt loam soil and treated preemergence with test chemicals formulated in a non-phytotoxic solvent mixture which included a surfactant.
(§4) At the same time, plants from these crop and weed species and also horseweed (Canada horseweed, Conyza canadensis), smartweed (ladysthumb smartweed, Polygonum persicaria), waterhemp_RES1, (ALS & Triazine resistant common waterhemp, Amaranthus rudis), and waterhemp_RES2, (ALS & HPPD resistant common waterhemp, Amaranthus rudis) were treated with postemergence applications of test chemicals formulated in the same manner. Plants ranged in height from 2 to 18 cm for postemergence treatments (1- to 4-leaf stage). Treated plants and controls were maintained in a greenhouse for 14 to 21 days, after which time all species were compared to controls and visually evaluated. Plant response ratings, summarized in Table F, are based on a scale of 0 to 100 where 0 is no effect and 100 is complete control. A dash (-) response means no test result.

fall panicum = assay: Test F postemergence; assay type: in vivo, Panicum dichotomiflorum; details: scale 0 to 100
From the text: as §3, §4

chamomile = assay: Test D preemergence; assay type: in vivo, Matricaria inodora; details: scale 0 to 100
From the text: Seeds of plant species selected from bluegrass (annual bluegrass, Poa annua), blackgrass (Alopecurus myosuroides), canarygrass (littleseed canarygrass, Phalaris minor), chickweed (common chickweed, Stellaria media), galium (catchweed bedstraw, Galium aparine), bromegrass, downy (downy bromegrass, Bromus tectorum), field poppy (Papaver rhoeas), field violet (Viola arvensis), foxtail, green (green foxtail, Setaria viridis), deadnettle (henbit deadnettle, Lamium amplexicaule), ryegrass, Italian (Italian ryegrass, Lolium multiflorum), kochia (Kochia scoparia), lambsquarters (Chenopodium album), oilseed rape (Brassica napus), pigweed (redroot pigweed, Amaranthus retroflexus), chamomile (scentless chamomile, Matricaria inodora), speedwell (bird's-eye speedwell, Veronica persica), barley, spring (spring barley, Hordeum vulgare), wheat, spring (spring wheat, Triticum aestivum), buckwheat, wild (wild buckwheat, Polygonum convolvulus), mustard, wild (wild mustard, Sinapis arvensis), oat, wild (wild oat, Avena fatua), radish, wild (wild radish, Raphanus raphanistrum), windgrass (Apera spica-venti), Russian thistle (Salsola kali), barley, winter (winter barley, Hordeum vulgare), and wheat, winter (winter wheat, Triticum aestivum) were planted into a silt loam soil and treated preemergence with test chemicals formulated in a non-phytotoxic solvent mixture which included a surfactant.
At the same time, these species were planted in pots containing Redi-Earth® planting medium (Scotts Company, 14111 Scottslawn Road, Marysville, Ohio 43041) comprising spaghnum peat moss, vermiculite, wetting agent and starter nutrients and treated with postemergence applications of the test chemicals formulated in the same manner. Plants ranged in height from 2 to 18 cm (1- to 4-leaf stage). Treated plants and controls were maintained in a controlled growth environment for 14 to 21 days after which time all species were compared to controls and visually evaluated. Plant response ratings, summarized in Table D, are based on a scale of 0 to 100 where 0 is no effect and 100 is complete control. A dash (-) response means no test result.

Row | Compound | Plant response rating, Morningglory (morningglory; 16 g ai/ha) | Plant response rating, Morningglory (morningglory; 31 g ai/ha) | Plant response rating, Morningglory (morningglory; 62 g ai/ha) | Plant response rating, Morningglory (morningglory; 125 g ai/ha) | Plant response rating, Morningglory (morningglory; 250 g ai/ha) | Plant response rating, Crabgrass, Naked (crabgrass, naked; 31 g ai/ha) | Plant response rating, Crabgrass, Naked (crabgrass, naked; 62 g ai/ha) | Plant response rating, Crabgrass, Naked (crabgrass, naked; 125 g ai/ha) | Plant response rating, Crabgrass, Naked (crabgrass, naked; 250 g ai/ha) | Plant response rating, Signalgrass (signalgrass; 16 g ai/ha) | Plant response rating, Signalgrass (signalgrass; 31 g ai/ha) | Plant response rating, Signalgrass (signalgrass; 62 g ai/ha) | Plant response rating, Signalgrass (signalgrass; 125 g ai/ha) | Plant response rating, Signalgrass (signalgrass; 250 g ai/ha) | Plant response rating, Guineagrass (guineagrass; 16 g ai/ha) | Plant response rating, Guineagrass (guineagrass; 31 g ai/ha) | Plant response rating, Guineagrass (guineagrass; 62 g ai/ha) | Plant response rating, Guineagrass (guineagrass; 125 g ai/ha) | Plant response rating, Guineagrass (guineagrass; 250 g ai/ha) | Plant response rating, Soybean (soybean; Postemergence, 31 g ai/ha) | other results
1 | CCc1cc(C(=O)NCC(F)(F)F)nn1Cc1ccnc(C(F)(F)F)c1 [Compound 78, 5-ethyl-N-(2,2,2-trifluoroethyl)-1-[[(2-trifluoromethyl)-4-pyridinyl]methyl]-1H-pyrazole-3-carboxamide] | 50 | 70 | 90 | 100 | 100 | 95 | 95 | 100 | 100 | 70 | 100 | 100 | 100 | 100 | 90 | 100 | 100 | 100 | 100 | 75 | Plant response rating, Soybean (soybean; Postemergence, 250 g ai/ha): 95; Plant response rating, Soybean (soybean; postemergence, 62 g ai/ha): 80; Plant response rating, Soybean (soybean; postemergence, 500 g ai/ha): 100; Plant response rating, Fall Panicum (fall panicum; Postemergence, 31 g ai/ha): 10; Plant response rating, Fall Panicum (fall panicum; Postemergence, 125 g ai/ha): 50; Plant response rating, Fall Panicum (fall panicum; Postemergence, 250 g ai/ha): 90; Plant response rating, Fall Panicum (fall panicum; postemergence, 62 g ai/ha): 20; Plant response rating, Fall Panicum (fall panicum; postemergence, 500 g ai/ha): 95
2 | CCc1cc(C(=O)NC(C)C)nn1Cc1ccnc(C(F)(F)F)c1 [Compound 103] | 95 | 100 | 100 | 100 | 100 | 100 | 100 | 100 | 100 | 65 | 80 | 100 | 100 | 100 | 100 | 100 | 100 | 100 | 100 | – | Plant response rating, Crabgrass, Naked (crabgrass, naked; 16 g ai/ha): 100
3 | CCOc1cc(C(=O)NCC(F)(F)F)nn1Cc1ccnc(C(F)(F)F)c1 [Compound 104] | 98 | 98 | 100 | 100 | 100 | 100 | 100 | 100 | 100 | 35 | 75 | 100 | 100 | 100 | 100 | 100 | 100 | 100 | 100 | 95 | Plant response rating, Crabgrass, Naked (crabgrass, naked; 16 g ai/ha): 95; Plant response rating, Soybean (soybean; Postemergence, 125 g ai/ha): 98; Plant response rating, Soybean (soybean; Postemergence, 250 g ai/ha): 98; Plant response rating, Soybean (soybean; postemergence, 62 g ai/ha): 95; Plant response rating, Soybean (soybean; postemergence, 500 g ai/ha): 95; Plant response rating, Fall Panicum (fall panicum; Postemergence, 31 g ai/ha): 10; Plant response rating, Fall Panicum (fall panicum; Postemergence, 125 g ai/ha): 50; Plant response rating, Fall Panicum (fall panicum; Postemergence, 250 g ai/ha): 80; Plant response rating, Fall Panicum (fall panicum; postemergence, 62 g ai/ha): 40; Plant response rating, Fall Panicum (fall panicum; postemergence, 500 g ai/ha): 90
4 | CCCc1cc(C(=O)NCC(F)(F)F)nn1Cc1ccnc(C(F)(F)F)c1 [Compound 105] | 100 | 100 | 100 | 100 | 100 | 100 | 100 | 100 | 100 | 75 | 98 | 98 | 98 | 98 | 75 | 90 | 100 | 100 | 100 | 70 | Plant response rating, Crabgrass, Naked (crabgrass, naked; 16 g ai/ha): 90; Plant response rating, Soybean (soybean; Postemergence, 125 g ai/ha): 90; Plant response rating, Soybean (soybean; Postemergence, 250 g ai/ha): 95; Plant response rating, Soybean (soybean; postemergence, 62 g ai/ha): 80; Plant response rating, Soybean (soybean; postemergence, 500 g ai/ha): 100; Plant response rating, Fall Panicum (fall panicum; Postemergence, 31 g ai/ha): 10; Plant response rating, Fall Panicum (fall panicum; Postemergence, 125 g ai/ha): 30; Plant response rating, Fall Panicum (fall panicum; Postemergence, 250 g ai/ha): 80; Plant response rating, Fall Panicum (fall panicum; postemergence, 62 g ai/ha): 20; Plant response rating, Fall Panicum (fall panicum; postemergence, 500 g ai/ha): 90
5 | CCCc1cc(C(=O)NCC(F)(F)F)nn1Cc1cc(C(F)(F)F)nn1C [Compound 138] | – | – | – | – | – | – | – | – | – | – | – | – | – | – | – | – | – | – | – | – | Plant response rating, Chamomile (chamomile; 31 g ai/ha): 0; Plant response rating, Chamomile (chamomile; 62 g ai/ha): 95; Plant response rating, Chamomile (chamomile; 125 g ai/ha): 100; Plant response rating, Chamomile (chamomile; 250 g ai/ha): 100
